Data reported in patent US7915304B2, “Phenyl substituted maleimides as medicaments for blocking degenerative tissue damages by inhibiting MPT” (Congenia S.r.l., priority 2006, dated 2011).

How the values were obtained:
[1] = tested on: permeability transition pore (PTP); assay: Mitochondrial in vitro assay: calcium retention capacity (CRC) of isolated mouse liver mitochondria; type: biochemical; details: ratio of calcium required to open the PTP with vs without compound, 10 μM Ca2+ pulses at 1 min intervals, compound added 1 min before, 25° C.
Text: The mitochondrial in vitro assay is based on the characteristics of mitochondrial organelles which allow the study of mitochondrial function in reductive sub-cellular in vitro systems. It is possible to investigate many mitochondrial processes in isolated mitochondrial suspension obtained from different tissues.
The ability of isolated mitochondria to uptake calcium from outside is a direct measure of mitochondrial integrity and functioning. Indeed MPT impairs the ability of mitochondria to upload calcium through specific channels that require an intact organelle structure. The assay takes advantage of this phenomenon to evaluate the ability of the invention compounds to interfere with MPT on isolated mitochondria.
Mitochondria were prepared from the livers of male 129 or C57/B6 mouse weighing 20-25 g. The animals were sacrificed by cervical dislocation. The livers were isolated and placed in ice-cold 0.25 M sucrose, 10 mM Tris-HCl, 0.1 mM ethylene-bis(oxoethylenenitrilo)tetraacetic acid (EGTA), pH 7.4 The livers were rinsed three-four times with ice-cold medium, minced with scissor and passed through a manual Potter homogenizer kept in an ice-water bath. The homogenate was diluted to 50 ml per liver, and unbroken cells and nuclei were sedimented by centrifugation at 900×g in a Beckman Avanti™ J-25 refrigerated centrifuge kept at 4° C. for 10 min. The supernatant was carefully decanted and centrifuged at 7000×g in the same centrifuge for 10 min. The supernatant was discarded and the mitochondrial pellets were carefully resuspended in ice-cold isolation medium and spun as above.
The resulting mitochondrial pellets were resuspended in a small amount of ice-cold isolation medium, and stored on ice. Mitochondria protein content was determined with the biuret assay.
The mitochondrial Ca^2+ retention capacity (CRC) is a sensitive measure of the propensity of mitochondria to open the PTP after Ca^2+ uptake. Since mitochondria are bidirectionally permeable to Ca^2+ owing to the presence of a Ca^2+ uniporter in their inner membrane, the mitochondrial membrane potential (Δψm) is responsible for the Ca^2+ accumulation in the mitochondrial matrix and consequent Ca^2+ gradient. Any drop in Δψm, such as depolarization caused by H^+ influx during PTP opening, is expected to result in a redistribution of Ca^2+ between the intra and extra-mitochondrial spaces, during which Ca^2+ uses all available routes through the mitochondrial membrane.
CRC of mitochondrial preparations was assessed fluorimetrically in the presence of the fluorescent Ca^2+ indicator Calcium Green-5N (excitation-emission: 505-535 nm) with a Perkin-Elmer LS 55 spectrofluorimeter equipped with a magnetic stirrer and thermostatic control set to 25° C. (Ichas, F.; Jouaville, L. S.; Mazat, J. P. Mitochondria are excitable organelles capable of generating and conveying electrical and calcium signal. Cell., 1997, 89, 1145-1153). Calcium Green-5N is a fluorometric probe that is not permeable to membranes and when added to a mitochondrial suspension is able to detect the presence of Ca^2+ in the extra-mitochondrial medium. Mitochondria were loaded with a train of 10 μM Ca^2+ pulses at 1 min intervals. Under these conditions mitochondria took up actively and retained Ca^2+ until a point at which mitochondria underwent a fast process of Ca^2+ release due to the opening of the PTP. The number of calcium pulses (final concentration of calcium) required to open the PTP is the mitochondrial CRC. This Ca^2+ loading protocol thus provides a convenient and sensitive assay for measuring PTP opening and it is used to assess the ability of the compounds of the invention to inhibit PTP opening. Compounds were added directly to the mitochondrial solution 1 min. prior to the start of calcium pulsing and the number of calcium pulses required to open the PTP was determined. […]

[2] = tested on: retinal neo-vascularisation; assay: Mouse retinopathy of prematurity (ROP) model of ischemia-induced retinal neo-vascularisation; type: in vivo; details: ROP mice
Protocol: Retinal neo-vascularisation was assessed in a mouse retinopathy of prematurity (ROP) model of ischemia-induced retinal neo-vascularisation. In rodents, retinal vascularisation is generally completed by post-natal day 14 (P14). Oxygen treatment during the second week of life partially causes vaso-obliteration of immature retinal vessels around the optic disk and it blocks subsequent vascular development of the deep retinal layers. When oxygen treatment is stopped, the ischemia of the retina triggers abnormal vessel growth, i.e., retinal neovascularisation.
At postnatal day 7 (P7), newborn mice were exposed to 75% O2 for 5 days in an oxygen incubator. […] Oxygen concentration was monitored by an Oxygen Monitor (Miniox III; Catalyst Research, MD). […]
At day 12 (P12) animals were removed from the oxygen exposure chamber and injected intra-vitreously with a Hamilton syringe with compounds or vehicle solution. […] Flat-mounted retinas were photographed by fluorescence microscopy (Zeiss Axioplan Thornwood, N.Y.) and by computer-imaging (KS300, Kontron Electronik GmbH, Germany) retinal images captured. […]
Eyes from the same groups, at p17, were fixed and sections were prepared and stained with hematoxylin and eosin to quantify the amount of endothelial cells developed. […]

[3] = tested on: experimental autoimmune encephalomyelitis (EAE); assay: Experimental autoimmune encephalomyelitis (EAE) model of multiple sclerosis; type: in vivo, mouse
Text: Experimental autoimmune encephalomyelitis (EAE) is possibly the best animal model to study demyelinating diseases of the central nervous system (CNS) such as multiple sclerosis (MS) Since the first classical studies EAE has been an invaluable tool for dissecting mechanisms of the immune response against self-antigens within the CNS, as well as to test new therapies for the treatment of autoimmune diseases. Rodents are susceptible to EAE. Depending upon species, antigens and mode of sensitisation, EAE can have a monophasic acute course or a chronic relapsing, and even a primarily progressive course that mimics human MS. Acute models of EAE allow faster experimentation and observation, whereas chronic models allow wider observation, such as preventive versus therapeutic treatments.
Seven week-old C57 black/6N female mice were immunized with an emulsion of mycobacterium tubercolosis and the peptide spanning the sequence 35aa-55aa of the myelin oligodendrocyte glycoprotein (MOG) dissolved in phosphate buffer and Freud adjuvant. Mice were injected subcutaneously, in three different sites, with a total of 0.3 ml of emulsion. Immediately after the immunization mice were injected intravenously with 0.1 ml of pertussin toxin ([…]). […]
Starting from day 10 after the immunization mice were evaluated daily for weight loss and locomotive defects. […]

**Q.** How did the CRC efficacy [1] turn out when `O=C1C=C(c2ccc(F)cc2)C(=O)N1c1cccc(Cl)c1` [Example 2, 1-(3-chlorophenyl)-3-(4-fluorophenyl)-pyrrole-2,5-dione] was run?
**A.** 2.5

**Q.** For `O=C1C=C(c2cccc(F)c2)C(=O)N1c1cccc(Cl)c1` [Example 9, 1-(3-chlorophenyl)-3-(3-fluorophenyl)-pyrrole-2,5-dione], which CRC efficacy [1] is on record?
**A.** 2.75

**Q.** How did the CRC efficacy [1] turn out when `O=C1C=C(c2cccc(F)c2)C(=O)N1c1ccc(F)c(Cl)c1` [Example 10, 1-(3-chloro-4-fluorophenyl)-3-(3-fluorophenyl)-pyrrole-2,5-dione] was run?
**A.** 2.27

**Q.** For `O=C1C=C(c2ccccc2F)C(=O)N1c1cccc(Cl)c1` [Example 13, 1-(3-chlorophenyl)-3-(2-fluorophenyl)-pyrrole-2,5-dione], which CRC efficacy [1] is on record?
**A.** 2

**Q.** For `O=C1C=C(c2ccccc2F)C(=O)N1c1ccc(F)c(Cl)c1` [Example 14, 1-(3-chloro-4-fluorophenyl)-3-(2-fluorophenyl)-pyrrole-2,5-dione], which CRC efficacy [1] is on record?
**A.** 2.22

**Q.** `O=C1C=C(c2ccccc2)C(=O)N1c1cccc(Br)c1` [Example 20, 1-(3-bromophenyl)-3-phenyl-pyrrole-2,5-dione] was tested. Which CRC efficacy [1] did it give?
**A.** 2.33

**Q.** `Cc1cccc(N2C(=O)C=C(c3ccccc3)C2=O)c1` [Example 22, 1-(3-methylphenyl)-3-phenyl-pyrrole-2,5-dione] was tested. Which CRC efficacy [1] did it give?
**A.** 2.57

**Q.** How did the CRC efficacy [1] turn out when `O=C1C=C(c2ccccc2)C(=O)N1c1cccc(C(F)(F)F)c1` [Example 31, 1-(3-trifluoromethylphenyl)-3-phenyl-pyrrole-2,5-dione] was run?
**A.** 2

**Q.** How did the CRC efficacy [1] turn out when `O=C1C=C(c2ccc(O)cc2)C(=O)N1c1cccc(Cl)c1` [Example 36, 1-(3-chlorophenyl)-3-(4-hydroxyphenyl)-pyrrole-2,5-dione] was run?
**A.** 1.87

**Q.** How did the CRC efficacy [1] turn out when `COc1ccc(C2=CC(=O)N(c3cccc(Cl)c3)C2=O)cc1` [Example 48, 1-(3-chlorophenyl)-3-(4-methoxyphenyl)-pyrrole-2,5-dione] was run?
**A.** 2.11

**Q.** For `Cc1cccc(N2C(=O)C=C(c3ccc(Cl)cc3)C2=O)c1` [Example 53, 1-(3-methylphenyl)-3-(4-chlorophenyl)-pyrrole-2,5-dione], which CRC efficacy [1] is on record?
**A.** 2.17

**Q.** How did the CRC efficacy [1] turn out when `O=C1C=C(c2ccc(Cl)cc2)C(=O)N1c1cccc(Cl)c1` [Example 55, 1-(3-chlorophenyl)-3-(4-chlorophenyl)-pyrrole-2,5-dione] was run?
**A.** 2.33

**Q.** For `Cc1ccc(C2=CC(=O)N(c3cccc(Cl)c3)C2=O)cc1` [Example 57, 1-(3-chlorophenyl)-3-(4-methylphenyl)-pyrrole-2,5-dione], which CRC efficacy [1] is on record?
**A.** 2.66

**Q.** With `COc1ccc(Cl)cc1N1C(=O)C=C(c2ccccc2)C1=O` [Example 58, 1-(5-chloro-2-methoxyphenyl)-3-phenyl-pyrrole-2,5-dione] as the compound, how does the CRC efficacy [1] read?
**A.** 1.86

**Q.** For `O=C1C=C(c2ccccc2)C(=O)N1c1ccc(F)c(Cl)c1` [Example 61, 1-(3-chloro-4-fluorophenyl)-3-phenyl-pyrrole-2,5-dione], which CRC efficacy [1] is on record?
**A.** 2.83

**Q.** What does the source list for `O=C1C=C(c2ccccc2)C(=O)N1c1cccc(Cl)c1` [Example 63, 1-(3-chlorophenyl)-3-phenyl-pyrrole-2,5-dione]?
**A.** CRC efficacy [1]: 2.5; neovascularization, fluorangiographic analysis ([2]; intravitreal injection at P12, approximately 1 or 2 or 4 microM in the vitreum, analysis at p17, vs DMSO vehicle): significant reduction; number of endothelial cells present in the eye (per section) ([2]; intravitreal injection at P12, eyes at p17, hematoxylin and eosin sections, FIG. 1): significantly reduces; treated mice developing inferior limb paresis after 20 days ([3]; 5 mg/kg intraperitoneally every day from day 4, approximately 30% of the untreated EAE mice developed it): no one; development of the disease (average clinical score, non parametric scale 0-5) ([3]; C57 black/6N female mice, MOG 35-55 immunization, 5 mg/kg intraperitoneally every day from day 4, FIG. 2): significantly prevented
